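In this assay, cells in 96-well plates receive the compound at five concentrations for 48 hours. Endpoints are linearly interpolated between the surrounding concentrations. TGI: total growth inhibition.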 Where a SMILES comes first, the peptide text is derived from it. The star is where a group is joined. Boc = CC(C)(C)OC(=O)*

Among the test systems are LOX IMVI melanoma; ACHN renal; MOLT-4 leukemia; SNB-19 CNS; HS 578T breast; HOP-92 NSCLC; NCI-H522 lung; HT29 colon; K-562 leukemia; NCI-H23 lung; OVCAR-4 ovarian; HCT-15 colon; EKVX NSCLC; UACC-257 melanoma; SR leukemia.
Common to all, as to assay: NCI-60 cell line screen, 48 h

Consider `Cc1cc(C)c(S(=O)(=O)N(CCCCCCN)OCCCN)c(C)c1`, for which the TGI in the assay with LOX IMVI melanoma amounted to 31.3 µM; in the assay on ACHN renal it was 30.9 µM; in the assay on MOLT-4 leukemia, 34.4 µM; in the assay on SNB-19 CNS, 38.2 µM; in the assay on HS 578T breast, 30.2 µM; with HOP-92 NSCLC it was 29.9 µM. In addition, the TGI is 27.3 µM in the assay with NCI-H522 lung; 30 µM in the assay with HT29 colon; more than 100 µM in the assay with K-562 leukemia; 32 µM with NCI-H23 lung; 46.2 µM in the assay with OVCAR-4 ovarian; 32.5 µM with HCT-15 colon. Moreover, the TGI amounted to 29.9 µM in the assay with EKVX NSCLC and 29.7 µM with UACC-257 melanoma.

For `COc1cc2c(cc1O)[C@H](C)C(c1ccccc1OC)O2` (stereo not given in full), the TGI with LOX IMVI melanoma was 26.7 µM; in the assay with ACHN renal, 23.9 µM; in the assay on SNB-19 CNS, more than 100 µM; in the assay on HOP-92 NSCLC, 62.8 µM; in the assay on NCI-H522 lung it was 9.25 µM; in the assay on HT29 colon it was 61.3 µM. The TGI is more than 100 µM in the assay on K-562 leukemia; more than 100 µM in the assay on NCI-H23 lung; 60.2 µM in the assay with OVCAR-4 ovarian; 12.1 µM in the assay on HCT-15 colon; more than 100 µM in the assay on EKVX NSCLC; more than 100 µM with UACC-257 melanoma.

For `COc1cc(CNc2nc3ccccc3n2Cc2ccccc2)cc(CN2CCOCC2)c1O`, the TGI was 30.7 µM with LOX IMVI melanoma; more than 100 µM with ACHN renal; more than 100 µM with MOLT-4 leukemia; more than 100 µM in the assay with SNB-19 CNS; 80.9 µM in the assay with HS 578T breast; 56.3 µM with HOP-92 NSCLC. The TGI was 78.2 µM with NCI-H522 lung; 70.4 µM with HT29 colon; 53.1 µM with K-562 leukemia; more than 100 µM in the assay on NCI-H23 lung; more than 100 µM in the assay on OVCAR-4 ovarian; 70.6 µM in the assay with HCT-15 colon. The TGI with EKVX NSCLC is more than 100 µM; in the assay with UACC-257 melanoma, 39.9 µM.

Consider `Brc1cccc(Nc2ncnc3sc4c(c23)CCC(Nc2cccc(Br)c2)C4)c1` (stereo not given), for which the TGI in the assay on LOX IMVI melanoma, in the assay on ACHN renal, in the assay with MOLT-4 leukemia, in the assay with SNB-19 CNS, with HS 578T breast and in the assay with HOP-92 NSCLC was more than 100 µM in each case. In addition, the TGI in the assay on NCI-H522 lung, in the assay on HT29 colon, with K-562 leukemia, in the assay on NCI-H23 lung, in the assay on OVCAR-4 ovarian and in the assay on HCT-15 colon was more than 100 µM throughout. Besides, the TGI with EKVX NSCLC and with UACC-257 melanoma was more than 100 µM in each case.

On to `COC(=O)C(Cc1c[nH]c2ccccc12)NC(=O)C(Cc1c[nH]c2ccccc12)NC(=O)C(Cc1c[nH]c2ccccc12)NC(=O)OC(C)(C)C` (stereo not drawn) (Boc-Trp-Trp-Trp-OMe; configuration not given here), for which the TGI with ACHN renal worked out at 32.5 µM; with MOLT-4 leukemia, 39.9 µM; in the assay with SNB-19 CNS, 47 µM; in the assay on HS 578T breast it was 48.4 µM; with HOP-92 NSCLC it was 33 µM; in the assay on HT29 colon, 35.9 µM. For the same compound, the TGI with K-562 leukemia was more than 100 µM; in the assay with NCI-H23 lung, 31.8 µM; in the assay on HCT-15 colon, 41.4 µM; in the assay on EKVX NSCLC it was more than 100 µM; with UACC-257 melanoma, more than 100 µM.

In the case of `Fc1ccc2c(c1)SC1Oc3ccccc3-c3c1c-2nn3-c1ccccc1` (stereo not given), the TGI in the assay on LOX IMVI melanoma, in the assay with ACHN renal, with MOLT-4 leukemia, with HOP-92 NSCLC, in the assay on NCI-H522 lung and in the assay with HT29 colon was more than 100 µM throughout. The TGI with K-562 leukemia, in the assay with NCI-H23 lung, in the assay with EKVX NSCLC and in the assay on UACC-257 melanoma was more than 100 µM each time.

For `CC(C)c1cccc(C(C)C)c1NC(=O)C(=O)CC(=O)CC(c1ccccc1)c1c(O)c2ccccc2oc1=O` (stereo not given), the TGI in the assay on ACHN renal, in the assay on MOLT-4 leukemia, in the assay on SNB-19 CNS, in the assay with HOP-92 NSCLC, in the assay with NCI-H522 lung and in the assay with HT29 colon was more than 100 µM in each case. The TGI with K-562 leukemia, in the assay on NCI-H23 lung, in the assay on OVCAR-4 ovarian, in the assay with EKVX NSCLC, in the assay on UACC-257 melanoma and with SR leukemia was more than 100 µM each time.

As for `CC(C)Oc1c(C2(c3ccccc3O)SCCCS2)c(=O)c1=O`, the TGI in the assay with LOX IMVI melanoma, in the assay on ACHN renal, with MOLT-4 leukemia, with SNB-19 CNS, with HS 578T breast and in the assay on HOP-92 NSCLC was more than 100 µM in each case. The TGI is 58.9 µM in the assay with NCI-H522 lung; more than 100 µM in the assay on HT29 colon; more than 100 µM in the assay with NCI-H23 lung; more than 100 µM in the assay on OVCAR-4 ovarian; more than 100 µM in the assay with HCT-15 colon; more than 100 µM in the assay with EKVX NSCLC. Further, the TGI in the assay with UACC-257 melanoma is more than 100 µM.

As for `O=C(CSc1nnc(Cc2ccccc2)o1)Nc1ccccc1Cl`, the TGI in the assay with LOX IMVI melanoma, in the assay on ACHN renal, in the assay with MOLT-4 leukemia, with SNB-19 CNS, in the assay on NCI-H522 lung and in the assay with HT29 colon was more than 100 µM each time. Also, the TGI in the assay on K-562 leukemia, in the assay on NCI-H23 lung, in the assay with OVCAR-4 ovarian and with HCT-15 colon was more than 100 µM each time.

For `COc1cc2c(cc1OC)C(=O)Cc1ccc3c(c1CNCC2)OCO3`, the TGI in the assay with ACHN renal, with MOLT-4 leukemia, with SNB-19 CNS, in the assay on NCI-H522 lung, in the assay with HT29 colon and in the assay with K-562 leukemia was more than 100 µM throughout. Also, the TGI with NCI-H23 lung, in the assay on OVCAR-4 ovarian, in the assay on HCT-15 colon, in the assay with EKVX NSCLC and in the assay with UACC-257 melanoma was more than 100 µM in each case.

Turning to `Cc1nc2nn(Cc3ccccc3)cc2c(=O)o1`, the TGI in the assay with LOX IMVI melanoma, in the assay on ACHN renal, with MOLT-4 leukemia, in the assay on SNB-19 CNS, in the assay on HT29 colon and in the assay with K-562 leukemia was more than 100 µM in each case. For the same compound, the TGI in the assay on HCT-15 colon, in the assay on EKVX NSCLC and with UACC-257 melanoma was more than 100 µM in each case.
